Measurements taken from patent US20260272950A1, “METHOD OF TREATMENT OF A NEURONAL PATHOLOGY RELATED TO HYPOXIA, HYPOGLYCEMIA AND/OR HYPERGLYCEMIA” (priority 2019, published 2026).

How the values were obtained:
[1] = tested on: primary culture of cortical neurons; assay: MTT neuronal survival evaluation test in in vitro model of ischemia/reperfusion (OGD); format: cell-based, mouse; settings: for neuronal protection (MTT): Example 6, FIG. 6, 100 nM, 4 h of OGD then 24 h of reperfusion
Procedure: (§1) More specifically, the cells taken are grown in a Neurobasal™ medium (ref. 21103049 ThermoFisher Scientific) to which L-glutamine and B27 supplement 50X (ref. 17504044 ThermoFisher Scientific) have been added (step 2). The neurons from the primary culture are then isolated and purified. It should be noted that it is the culture conditions in themselves which make it possible to obtain a purified culture of neurons from the dissociation of the embryonic cortexes. Oxygen and glucose deprivation (OGD) is then carried out (step 3) on these neurons in order to mimic as closely as possible what happens in vivo during a stroke, that is to say a decrease in oxygen and glucose supply due to a decrease in blood perfusion for the cells. In order to carry out this oxygen and glucose deprivation mimicking ischemia, the neurons are placed, for 4 h, in an incubator of which the atmosphere has an oxygen content of approximately 1% and with the culture medium being replaced with a glucose-free medium (step 3). Since the ischemia model is an “ischemia/reperfusion” model, the neurons are then placed in a medium containing glucose under normoxic conditions for 24 h (reperfusion) (step 4) following the ischemia step. Neuron group A is a group of neurons having been treated with a solution of compound of formula (I) during the OGD and the reperfusion, that is to say that a molecule of table 1 is added to glucose-free medium as soon as the oxygen and glucose deprivation begins (step 3). […] The concentration of the other molecules of table 1 is 100 nmol·L^−1 in the glucose-free medium. Neuron group B is a group of neurons having been treated with a solution of DX243 during the reperfusion only (step 4), in order to be closer to what occurs clinically, namely the possible treatment only after several hours with a conventional treatment. The DX243 solution is added to the glucose-free medium as soon as the reperfusion begins (step 4). The DX243 concentration is between 1 nmol. L^−1 and 1 μmol·L^−1 in the glucose-free medium.
(§2) The negative control consists of a group of neurons undergoing OGD (step 3) followed by reperfusion (step 4) without DX243 being present. This group of neurons is called “Ctrl” in FIGS. 2 to 4. The normal control consists of a group of neurons from the primary culture placed under normoxic conditions for 28 h. The normal control is called “normox” in FIGS. 2 to 4. The positive control consists of a group of neurons from the primary culture having undergone OGD for 4 h (step 3) in the presence of roscovitine, which is a cell cycle inhibitor, leading to neuronal protection, followed by reperfusion for 24 h (step 4). The positive control is called “ROSCO” in FIGS. 2 to 4.
(§3) At the end of the reperfusion (step 4), 24 h after the OGD, the survival of the neurons is evaluated by means of three different tests: an immunocytochemical test 5, an MTT (3-(4,5-dimethylthiazol-2-yl)-2,5-diphenyltetrazolium bromide) test 6 and a test based on the cell membrane integrity via the use of trypan blue 7. The results are then compared to the results of the three control-group survival tests.
In order to confirm the results obtained with DX243, a test based on the metabolic activity of the neurons was carried out to evaluate neuronal survival in another way. This test is based on the use of the tetrazolium salt MTT (3-(4,5-dimethylthiazol-2-yl)-2,5-diphenyltetrazolium bromide). The tetrazolium is reduced, by the mitochondrial succinate dehydrogenase of the active live cells, into formazan, a purple-colored precipitate. The amount of precipitate formed is proportional to the amount of live cells but also to the metabolic activity of each cell. Thus, a simple assay of the optical density at 550 nm by spectroscopy makes it possible to determine the relative amount of live and metabolically active cells. […]

[2] = tested on: primary culture of cortical neurons; assay: Neuronal survival evaluation via trypan blue (cell membrane integrity) in in vitro model of ischemia/reperfusion (OGD); format: cell-based, mouse; settings: for overall conclusion: neuroprotective effect against cerebral ischemia: conclusion drawn from all of the results (Examples 2 to 8); for neuronal protection (trypan blue): Example 7, FIG. 7, 4 h of OGD then 24 h of reperfusion
Procedure: as §1, §2, §3
A third cell survival test in the case of the use of DX243, based on cell membrane integrity, which is ruptured in dead cells, was carried out. The latter test uses trypan blue which will stain the dead cells blue. The calculation of the percentage of live cells was consequently performed by counting the proportion of blue and non-blue cells, and related to the percentage of live cells observed in the normox group. The results obtained were reported in graph A of FIG. 4 for group A and in graph B of FIG. 4 for group B.
For all the molecules of table I other than DX243 used on group A, the third cell survival test was carried out. The results obtained were reported on the graph of FIG. 5, with the results obtained with DX243 being included therein. The sign NT means not treated. […]

[3] = tested on: primary culture of cortical neurons; assay: Immunocytochemical test for neuronal survival (DAPI, CC3, TUJ1) in in vitro model of ischemia/reperfusion (OGD); format: cell-based, mouse
Procedure: as §1
The negative control consists of a group of neurons undergoing OGD (step 3) followed by reperfusion (step 4) without DX243 being present. This group of neurons is called “Ctrl” in FIGS. 2 to 4. […]
At the end of the reperfusion (step 4), 24 h after the OGD, the survival of the neurons is evaluated by means of three different tests: an immunocytochemical test 5, an MTT (3-(4,5-dimethylthiazol-2-yl)-2,5-diphenyltetrazolium bromide) test 6 and a test based on the cell membrane integrity via the use of trypan blue 7. […]
A first series of images is taken with chemical labelling by fluorescence. […] A second series of images is taken with labelling by fluorescence using the CC3 antibody. […]

[4] = tested on: male murine model of stroke, called Middle Cerebral Artery Occlusion (MCAO); assay: In vivo stroke test, Middle Cerebral Artery Occlusion (MCAO) followed by reperfusion; design: species or system mouse; settings: DX243 50 mg/Kg at reperfusion after 1 h occlusion
[5] = Example 5, FIG. 5, group A, 100 nmol·L^−1 during 4 h OGD and 24 h reperfusion
[6] = concentration not printed in the sentence (100 nmol·L^−1 per Example 1)
[7] = 4 h OGD + 24 h reperfusion, DX243 treatment compared with the Ctrl group
[8] = observed at 24 h, vs non-treated (Ctrl) mice

Row | Compound | neuronal protection (MTT) [1] | overall conclusion: neuroprotective effect against cerebral ischemia [2] | survival rate compared with DX243 [2, 5] | further results
1 | CC(C)CCCC(C)[C@H]1CCC2C3C[C@@H](NCCc4cnc[nH]4)[C@@]4(O)C[C@@H](O)CC[C@]4(C)C3CC[C@@]21C (some centres unmarked) [DX101] | neuroprotective effect | neuroprotective effect against cerebral ischemia |  | 
2 | CC(C)CCCC(C)[C@H]1CCC2C3=C[C@@H](NCCCNCCCCN)[C@@]4(O)C[C@@H](O)CC[C@]4(C)C3CC[C@@]21C (some centres unmarked) [DX242] | neuroprotective effect | neuroprotective effect against cerebral ischemia | greater than that of DX243 | neuronal protection (trypan blue) [2, 6]: neuroprotective effect
3 | CC(C)CCCC(C)[C@H]1CCC2C3C[C@@H](NCCCN(CCCCNC(=O)OC(C)(C)C)C(=O)OC(C)(C)C)[C@@]4(O)C[C@@H](O)CC[C@]4(C)C3CC[C@@]21C (some centres unmarked) [DX243BOC] |  |  | lower than that of the group treated with DX243 | survival rate compared with NT neurons having undergone OGD and reperfusion [2, 5]: lower than that of the group treated with DX243 and than that of the NT group having undergone OGD and reperfusion
4 | CC(C)CCCC(C)[C@H]1CCC2C3C[C@@H](NCCCNCCCCN)[C@@]4(O)C[C@@H](O)CC[C@]4(C)C3CC[C@@]21C (some centres unmarked) [DX243] | significant neuronal protection | neuroprotective effect against cerebral ischemia |  | protection against neuronal death ([3]; 4 h OGD + 24 h reperfusion, DX243 during OGD and reperfusion, or only during reperfusion, vs Ctrl group): partially protect against neuronal death; proportion of cells undergoing apoptosis (CC3 antibody, activated caspase 3) [3, 7]: decrease in the proportion of cells undergoing apoptosis; proportion of live cells [3, 7]: increase in the proportion of live cells; neuron protection, post-OGD treatment for 24 h (reperfusion only) compared with treatment during OGD and reperfusion ([3]; group B, DX243 only during 24 h reperfusion): protects the neurons even more efficiently; protection against decrease of metabolically active cells (survival) following OGD ([1]; 4 h OGD + 24 h reperfusion, groups A and B, vs Ctrl group): partially protects against this decrease in survival; effect in group treated only during reperfusion compared with group A ([1]; group B, DX243 only during the reperfusion for 24 h): all the more marked; percentage of live cells (membrane integrity) related to normox group ([2]; 4 h OGD + 24 h reperfusion, groups A and B, mainly 1 to 100 nmol·L^−1): restores the percentage of live cells to levels close to that observed in the normox group; neuronal protection (trypan blue) ([2]; 1000 nM): neuroprotective effect; neuronal protection (trypan blue) ([2]; concentrations ranging from 1 to 100 nM): significant neuronal protection; behavioral deficits (neuroscore) ([4]; observed at 24 h, living mice, vs non-treated (Ctrl) mice): decrease in the behavioral deficits; percentage of dead mice [4, 8]: decrease in the percentage of dead mice; size of the lesion (infarcted region, TTC staining) [4, 8]: decrease in the size of the lesion; correlation between the decrease in blood flow (Laser Doppler Flowmetry) and the consequences of the stroke ([4]; treated mice): there does not appear to be any correlation
5 | CC(C)CCCC(C)[C@H]1CCC2C3=C[C@@H](NCCCCNCCCN)[C@@]4(O)C[C@@H](O)CC[C@]4(C)C3CC[C@@]21C (some centres unmarked) [DX244] | neuroprotective effect | neuroprotective effect against cerebral ischemia | greater than that of DX243 | neuronal protection (trypan blue) [2, 6]: neuroprotective effect
6 | CC(C)CCCC(C)[C@H]1CCC2C3C[C@@H](NCCCCNCCCN)[C@@]4(O)C[C@@H](O)CC[C@]4(C)C3CC[C@@]21C (some centres unmarked) [DX245] | significant neuronal protection | neuroprotective effect against cerebral ischemia | greater than that of DX243 | neuronal protection (trypan blue) ([2]; 10 nM): neuroprotective effect; neuronal protection (trypan blue) ([2]; 100 nM): significant neuronal protection; neuronal protection (trypan blue) ([2]; 1000 nM): neuroprotective effect
7 | CC(=O)NCCCNCCCCN[C@@H]1CC2C3CC[C@H](C(C)CCCC(C)C)[C@@]3(C)CCC2[C@@]2(C)CC[C@H](O)C[C@]12O (some centres unmarked) [DX249] | neuroprotective effect | neuroprotective effect against cerebral ischemia |  | 
8 | CC(C)CCCC(C)[C@H]1CCC2C3C[C@@H](NCCCNCCCCNCCCN)[C@@]4(O)C[C@@H](O)CC[C@]4(C)C3CC[C@@]21C (some centres unmarked) [DX301] | neuroprotective effect | neuroprotective effect against cerebral ischemia |  | 
9 | CC(C)CCCC(C)[C@H]1CCC2C3=C[C@@H](NCCCNCCCCNCCCN)[C@@]4(O)C[C@@H](O)CC[C@]4(C)C3CC[C@@]21C (some centres unmarked) [DX302] | neuroprotective effect | neuroprotective effect against cerebral ischemia |  | 
10 | CC(C)CCCC(C)[C@H]1CCC2C3C[C@@H](NCCCCN)[C@@]4(O)C[C@@H](O)CC[C@]4(C)C3CC[C@@]21C (some centres unmarked) [DX401] | neuroprotective effect | neuroprotective effect against cerebral ischemia |  | 
